{"source": "paper PMC7615677", "about": "(Science translational medicine, 2023)", "key": {"[1]": {"assay": "In vitro metabolism, cryopreserved hepatocytes", "assay_type": "in vitro ADME, mouse", "method": "(§1) Cell viability was determined using trypan blue exclusion. The incubation was performed on a plate shaker (Heidolph Titrimax 100, 900 rpm) placed in a humidified incubator (37°C, 7.5% CO2) for 240 min. The reaction was initiated with the addition of compound with samples taken periodically and quenched with the addition of acetonitrile containing internal standards (metolazone and diazepam). Quenched samples were maintained on ice for approximately 20-30 min, centrifuged (for 5 min) and the supernatant analyzed by LC-MS.\n(§2) In vitro intrinsic clearance (CLint, μL/min/mg or μL/min/10^6 cells) values were calculated from the apparent first order degradation rate constant divided by the microsome concentration or the hepatocyte cell number (10^6 viable cells/mL). In vitro CLint values were then divided by the fraction unbound in the in vitro test system (to give CLint,u) and scaled to in vivo values (mL/min/kg) using published physiological scaling factors ([28]). Blood clearance in each species was then calculated using the well-stirred model of hepatic extraction (equation 2) where Q is the hepatic blood flow and fu,blood is calculated from fu,plasma/B:P: [2] PredictedCLblood=Q x fu,blood x CLint,u/Q+fu,blood x CLint,u\n(§3) Blood clearance values were converted to plasma clearance by multiplying by the B:P."}, "[2]": {"assay": "Caco-2 permeability", "assay_type": "in vitro ADME", "conditions": "human", "method": "(§4) The ionization constant (pKa), octanol-pH 7.4 buffer partition coefficient (Log D7.4), solubility in biorelevant buffers (FaSSIF-V2, FeSSIF-V2, FaSSGF and pH 7.4 phosphate buffered saline (PBS)) and Caco-2 permeability were determined according to previously published methods ([10])."}, "[3]": {"test_system": "Caco-2 cell monolayers", "assay": "Caco-2 permeability", "assay_type": "in vitro ADME", "method": "as §4"}, "[4]": {"assay": "In vitro metabolism, cryopreserved hepatocytes", "assay_type": "in vitro ADME, dog", "method": "as §1, §2, §3"}, "[5]": {"biological_target": "T1, Lck kinase (Homo sapiens, UniProt P06239)", "T1 construct": "purchased Eurofins (Cerep/DiscoverX SafetyScreen44 in vitro pharmacology panel)", "T1 sequence (P06239 whole entry)": "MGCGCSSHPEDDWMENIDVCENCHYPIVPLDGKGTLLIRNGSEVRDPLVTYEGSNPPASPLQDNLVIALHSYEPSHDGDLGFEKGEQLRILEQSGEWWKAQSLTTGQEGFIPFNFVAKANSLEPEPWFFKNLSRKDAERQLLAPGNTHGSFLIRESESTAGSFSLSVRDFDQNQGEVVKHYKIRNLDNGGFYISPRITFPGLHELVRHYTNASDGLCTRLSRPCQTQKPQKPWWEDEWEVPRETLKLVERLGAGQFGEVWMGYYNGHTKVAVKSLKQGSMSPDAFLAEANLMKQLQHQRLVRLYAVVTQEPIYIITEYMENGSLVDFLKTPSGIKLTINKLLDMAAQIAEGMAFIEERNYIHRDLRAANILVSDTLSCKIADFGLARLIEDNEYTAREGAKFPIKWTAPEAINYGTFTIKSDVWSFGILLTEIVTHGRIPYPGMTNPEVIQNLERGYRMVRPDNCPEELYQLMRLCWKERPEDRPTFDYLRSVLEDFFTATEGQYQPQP", "assay": "In vitro pharmacology panel (Eurofins)", "assay_type": "biochemical", "conditions": "read-out: activity (% of DMSO control)", "description": "(§5) Listed values represent the percent change relative to the DMSO control activity. When an IC50 had to be determined, eight different concentrations were included. All values are the mean of assay readout duplicates."}, "[6]": {"biological_target": "T2, COX2 (Homo sapiens, UniProt P35354)", "T2 construct": "purchased Eurofins (Cerep/DiscoverX SafetyScreen44 in vitro pharmacology panel)", "T2 sequence (P35354 18-604)": "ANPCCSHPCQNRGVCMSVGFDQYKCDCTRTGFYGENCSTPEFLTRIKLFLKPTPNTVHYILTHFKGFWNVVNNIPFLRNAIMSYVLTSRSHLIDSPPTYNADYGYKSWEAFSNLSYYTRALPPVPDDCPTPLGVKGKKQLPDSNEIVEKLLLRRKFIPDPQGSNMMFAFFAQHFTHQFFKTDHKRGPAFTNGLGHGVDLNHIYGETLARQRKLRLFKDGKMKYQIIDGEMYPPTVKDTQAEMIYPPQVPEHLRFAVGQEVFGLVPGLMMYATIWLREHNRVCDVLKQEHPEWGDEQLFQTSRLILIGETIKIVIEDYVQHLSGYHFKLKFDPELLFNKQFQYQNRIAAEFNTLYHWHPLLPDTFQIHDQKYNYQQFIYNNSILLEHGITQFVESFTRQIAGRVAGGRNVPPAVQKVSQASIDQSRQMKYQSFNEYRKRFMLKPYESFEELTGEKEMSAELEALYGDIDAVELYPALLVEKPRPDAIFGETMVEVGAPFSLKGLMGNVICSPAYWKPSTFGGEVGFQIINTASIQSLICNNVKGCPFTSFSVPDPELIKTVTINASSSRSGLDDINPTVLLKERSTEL", "assay": "In vitro pharmacology panel (Eurofins)", "assay_type": "biochemical", "conditions": "read-out: activity (% of DMSO control)", "description": "as §5"}, "[7]": {"biological_target": "T3, COX1 (Homo sapiens, UniProt P23219)", "T3 construct": "purchased Eurofins (Cerep/DiscoverX SafetyScreen44 in vitro pharmacology panel)", "T3 sequence (P23219 24-599)": "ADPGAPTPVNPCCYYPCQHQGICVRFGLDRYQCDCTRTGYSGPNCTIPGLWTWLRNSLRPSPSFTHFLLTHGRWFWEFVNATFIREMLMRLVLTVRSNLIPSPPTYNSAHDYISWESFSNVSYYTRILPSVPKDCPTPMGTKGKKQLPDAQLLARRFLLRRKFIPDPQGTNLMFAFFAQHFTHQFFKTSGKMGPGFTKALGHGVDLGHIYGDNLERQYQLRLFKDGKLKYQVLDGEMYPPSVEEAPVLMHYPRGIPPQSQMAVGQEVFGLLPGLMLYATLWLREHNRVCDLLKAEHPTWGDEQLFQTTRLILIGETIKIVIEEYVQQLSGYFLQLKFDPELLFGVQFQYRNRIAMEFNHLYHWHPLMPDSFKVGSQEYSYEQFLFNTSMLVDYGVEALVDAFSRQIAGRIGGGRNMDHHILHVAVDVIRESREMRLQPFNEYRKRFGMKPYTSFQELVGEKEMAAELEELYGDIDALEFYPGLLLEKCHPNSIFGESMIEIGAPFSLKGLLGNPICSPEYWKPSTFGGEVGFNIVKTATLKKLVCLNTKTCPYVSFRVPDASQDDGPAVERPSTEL", "assay": "In vitro pharmacology panel (Eurofins)", "assay_type": "biochemical", "conditions": "read-out: activity (% of DMSO control)", "description": "as §5"}, "[8]": {"biological_target": "T4, acetylcholinesterase (Homo sapiens, UniProt P22303)", "T4 construct": "Eurofins (contract assay)", "T4 sequence (P22303 32-614)": "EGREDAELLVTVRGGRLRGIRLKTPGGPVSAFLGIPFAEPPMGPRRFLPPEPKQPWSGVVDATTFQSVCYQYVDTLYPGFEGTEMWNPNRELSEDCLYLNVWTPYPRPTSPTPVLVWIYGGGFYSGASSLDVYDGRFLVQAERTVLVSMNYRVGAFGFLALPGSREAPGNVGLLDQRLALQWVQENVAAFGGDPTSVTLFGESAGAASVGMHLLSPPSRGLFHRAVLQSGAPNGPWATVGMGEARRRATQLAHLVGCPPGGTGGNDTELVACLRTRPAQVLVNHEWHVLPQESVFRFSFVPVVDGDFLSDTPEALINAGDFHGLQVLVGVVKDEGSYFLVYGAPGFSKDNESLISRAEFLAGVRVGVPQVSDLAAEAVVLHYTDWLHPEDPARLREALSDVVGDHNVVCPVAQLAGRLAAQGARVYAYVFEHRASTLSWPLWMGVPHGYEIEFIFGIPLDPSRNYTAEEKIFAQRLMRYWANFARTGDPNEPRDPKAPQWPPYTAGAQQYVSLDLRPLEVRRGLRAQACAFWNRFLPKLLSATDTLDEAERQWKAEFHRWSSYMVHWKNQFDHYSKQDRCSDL", "assay": "In vitro pharmacology panel (Eurofins)", "assay_type": "biochemical", "conditions": "read-out: activity (% of DMSO control)", "description": "as §5"}, "[9]": {"biological_target": "T5, PDE3A (Homo sapiens, UniProt Q14432)", "T5 construct": "Eurofins (contract assay)", "T5 sequence (Q14432 whole entry)": "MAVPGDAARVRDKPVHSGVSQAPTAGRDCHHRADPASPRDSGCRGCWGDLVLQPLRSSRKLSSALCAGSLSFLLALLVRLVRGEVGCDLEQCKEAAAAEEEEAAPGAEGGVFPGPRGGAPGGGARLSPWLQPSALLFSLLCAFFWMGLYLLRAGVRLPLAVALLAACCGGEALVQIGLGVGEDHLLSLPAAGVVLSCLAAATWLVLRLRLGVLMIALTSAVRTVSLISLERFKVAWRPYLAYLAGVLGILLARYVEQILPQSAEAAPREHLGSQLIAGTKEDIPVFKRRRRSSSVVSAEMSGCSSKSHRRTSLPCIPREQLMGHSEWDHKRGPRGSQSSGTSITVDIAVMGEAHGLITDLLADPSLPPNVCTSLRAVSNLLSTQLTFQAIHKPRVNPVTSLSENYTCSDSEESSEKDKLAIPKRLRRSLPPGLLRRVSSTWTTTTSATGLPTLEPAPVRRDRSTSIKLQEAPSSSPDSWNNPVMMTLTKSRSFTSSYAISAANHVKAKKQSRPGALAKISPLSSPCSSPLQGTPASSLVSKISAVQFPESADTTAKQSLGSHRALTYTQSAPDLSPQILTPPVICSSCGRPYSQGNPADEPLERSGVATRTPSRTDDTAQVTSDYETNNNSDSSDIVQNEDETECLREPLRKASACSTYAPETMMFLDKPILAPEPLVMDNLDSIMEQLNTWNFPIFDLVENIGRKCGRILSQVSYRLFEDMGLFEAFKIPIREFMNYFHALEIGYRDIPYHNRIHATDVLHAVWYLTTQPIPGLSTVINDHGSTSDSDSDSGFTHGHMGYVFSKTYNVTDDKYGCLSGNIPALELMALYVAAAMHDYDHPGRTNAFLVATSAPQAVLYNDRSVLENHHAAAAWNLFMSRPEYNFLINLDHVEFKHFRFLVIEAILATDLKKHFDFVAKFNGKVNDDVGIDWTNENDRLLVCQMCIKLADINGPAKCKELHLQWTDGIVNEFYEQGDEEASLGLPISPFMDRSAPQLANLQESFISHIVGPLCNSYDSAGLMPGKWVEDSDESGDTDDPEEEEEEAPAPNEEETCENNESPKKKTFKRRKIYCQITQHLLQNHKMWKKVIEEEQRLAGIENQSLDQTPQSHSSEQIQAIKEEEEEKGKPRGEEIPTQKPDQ", "assay": "In vitro pharmacology panel (Eurofins)", "assay_type": "biochemical", "description": "as §5"}, "[10]": {"biological_target": "T6, PDE4D2 (Homo sapiens, UniProt Q08499)", "T6 construct": "Eurofins (contract assay)", "T6 sequence (Q08499 303-809 limits assumed)": "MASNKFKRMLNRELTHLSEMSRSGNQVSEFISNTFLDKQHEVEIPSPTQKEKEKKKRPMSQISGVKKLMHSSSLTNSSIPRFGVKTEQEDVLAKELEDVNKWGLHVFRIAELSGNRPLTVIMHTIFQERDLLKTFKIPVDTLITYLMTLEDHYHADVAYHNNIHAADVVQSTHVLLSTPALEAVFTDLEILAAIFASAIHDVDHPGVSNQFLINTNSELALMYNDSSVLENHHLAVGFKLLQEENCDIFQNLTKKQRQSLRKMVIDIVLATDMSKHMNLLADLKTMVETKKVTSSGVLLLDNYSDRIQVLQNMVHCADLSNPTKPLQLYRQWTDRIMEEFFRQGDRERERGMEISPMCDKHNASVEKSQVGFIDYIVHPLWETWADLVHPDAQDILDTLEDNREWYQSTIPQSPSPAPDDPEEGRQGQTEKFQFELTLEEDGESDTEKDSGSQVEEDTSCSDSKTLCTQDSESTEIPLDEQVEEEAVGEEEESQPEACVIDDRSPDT", "assay": "In vitro pharmacology panel (Eurofins)", "assay_type": "biochemical", "description": "as §5"}, "[11]": {"test_system": "HEK293F-derived mitochondria", "assay": "Calcium loading capacity (CLC) assessment", "assay_type": "biochemical", "method": "The CLC of frozen HEK293F-derived mitochondria was determined using a method based on that previously described for fresh rat liver mitochondria ([23]). Briefly, a buffer (130 mM Sucrose, 37.54 mM KCl, 2.5 mM KH2PO4, 5 mM HEPES) containing 0.5 mM Ca^2+ and supplemented with 15 mM succinate, 2.5 μM rotenone and 0.15 μg/ml cell impermeant Fluo 5N (Life Technologies), was added to each well of a 384 well microplate (control wells also contained 0.24 μl/well DMSO or 3 μM cyclosporine). Thawed mitochondria suspended at 0.6 mg/ml were added to all wells to initiate the assay, and the fluorescence measured every 5 minutes at 520 nm in a PHERAstar FS microplate reader (BMG LabTech, Aylesbury, UK), (25 reads over 2 hours). Area under the curve (AUC) values for the first 10 reads were exported and the concentration-response relationship was modelled using the following formula: y=((B-A)/(1+(10^X/10^C)^D)+A where B=max, A=min, C=IC50, D=slope. The fitted curves were then used to calculate a pXC50 value."}, "[12]": {"conditions": "10 µM, read-out: activity (% of DMSO control)"}}}
{"smiles": "Cc1[nH]c2nc(N)nc(C)c2c1-c1ccc(C#N)c2c1OCO2", "note": "[DNDI-6174]", "values": [{"measurement": "Hepatocyte predicted in vivo CLplasma", "setting": "[1]; Mouse", "value": 17, "unit": "mL/min/kg"}, {"measurement": "hepatocyte CLint at 0.5 µM", "setting": "[1]; mouse, cryopreserved hepatocytes", "value": "9.7 ± 0.091", "unit": "µL/min/1e6 cells"}, {"measurement": "Papp A→B", "setting": "[2]", "value": 71, "unit": "×10⁻⁶ cm/s"}, {"measurement": "Papp B→A", "setting": "[2]", "value": 72, "unit": "×10⁻⁶ cm/s"}, {"measurement": "A-B Mass balance", "setting": "[3]", "value": 98, "unit": "%"}, {"measurement": "B-A Mass balance", "setting": "[3]", "value": 96, "unit": "%"}, {"measurement": "Hepatocyte predicted in vivo CLplasma", "setting": "[4]; Dog", "value": 0.30, "unit": "mL/min/kg"}, {"measurement": "hepatocyte CLint at 0.5 µM", "setting": "[4]; dog, cryopreserved hepatocytes", "value": "1 ± 0.27", "unit": "µL/min/1e6 cells"}, {"measurement": "remaining activity at 10 µM", "setting": "[5]", "value": 100, "unit": "%"}, {"measurement": "remaining activity at 10 µM", "setting": "[6]", "value": 137, "unit": "%"}, {"measurement": "remaining activity at 10 µM", "setting": "[7]", "value": 115, "unit": "%"}, {"measurement": "remaining activity at 10 µM", "setting": "[8]", "value": 96.8, "unit": "%"}, {"measurement": "remaining activity at 10 µM", "setting": "[9]; [12]", "value": 30.1, "unit": "%"}, {"measurement": "IC50", "setting": "[9]; human PDE3A", "value": 3.36, "unit": "µM"}, {"measurement": "remaining activity at 10 µM", "setting": "[10]; [12]", "value": 27.1, "unit": "%"}, {"measurement": "IC50", "setting": "[10]; human PDE4D2", "value": 6.67, "unit": "µM"}, {"measurement": "Mean pXC50, calcium loading capacity", "setting": "[11]; HEK mitochondria", "value": 5}, {"measurement": "XC50, reduction in calcium loading capacity", "setting": "[11]; isolated HEK mitochondria", "value": 10, "unit": "µM"}]}
